Patent US20090176701A1, “Anti-microbial agents that interact with the complement system” (priority 2005, published 2009)

How the values were obtained:
Assay type in all cases: cell-based
[1] = system: E. coli O18:K1:H7; experiment: Bacterial killing assay in 10% blood; design: CFU / CFU (Range) / CFU 1 hour / CFU 3 hours / CFU 5 hours / CFU 3 hour: scale not given here; settings: for activity against O18ac:K1:H7 E. coli strain in blood / CFU / CFU 1 hour / CFU 3 hours / CFU 5 hours / bacterial killing activity (effect on bacterial growth): 10% blood; for activity against O18ac:K1:H7 E. coli strain in blood: concentrations tested 10 nM to 3 μM, peptide #5 compared to peptide #3; for bacterial survival (outgrowth of bacterial colonies): FIG. 11d, E. coli O18ac:K1:H7 in diluted whole blood; for CFU 1 hour / CFU 3 hours / CFU 5 hours: Table 5, 3000 CFU; for CFU 1 hour: blood 3.4; for CFU 3 hours: blood 4.2; for CFU 5 hours: blood 5.1; for bacterial killing activity (effect on bacterial growth): FIGS. 1 and 2, TFPI 5 μM, cathepsin G 400 nM
Description: TFPI was incubated with α-thrombin, plasmin, elastase and cathepsin G in 10% blood and tested for bacterial killing activity against E. coli O18:K1:H7 as follows. Recombinant TFPI at 5 μM (unless indicated otherwise), was treated with plasmin (100 nM, lane 3) and α-thrombin (100 nM, lane 7; 1 μM, lane 8) (A), elastase (100 nM, lanes 3 and 4) (B), and cathepsin G (100 nM, lane 4; 1 μM, lanes 5, 6 and 7) (C) in a total volume of 180 μl. The reaction contained TFPI diluted in RPMI 1640 without phenol red, 25 mM Hepes, pH 7.5 (RPMI), 3000 CFU E. coli O18:K1:H7 in 40 μl PBS, and diluted enzyme in 20 μl RPMI. The volume was adjusted with RPMI. The samples were pre-incubated for 15-30 minutes before the addition of anti-coagulant-free fresh blood to a final volume of 200 μl. Controls were 10% blood in RPMI, TFPI at 1, 2 and 5 μM, and the enzymes alone at the respective concentrations. The samples were incubated for 4 hours at 37° C. with 5% CO2 in a humidified incubator and serial dilutions plated on Tryptase soy agar plates. The number of bacterial colonies was determined after overnight incubation at 37° C. All experimental conditions are run in duplicate. The data represent the average colony number.
The 18 μl aliquots were diluted to 10 μM TFPI with 445 μl RPMI 1640 without phenolred, 25 mM Hepes, pH 7.5 (RPMI) and assayed at a final concentration of 5 μM in 200 μl reactions containing 3000 CFU E. coli in 40 μl PBS, 10% non-coagulated blood, and adjusted to the final volume with RPMI. Negative controls were 10% blood in RPMI, TFPI at 5 μM and cathepsin G at 400 nM. Anti-coagulant free blood was freshly drawn and added to the reaction as the last component. The samples were manipulated as described above.
Peptides were designed to test for bacterial killing activity localized in the C-terminal domain of TFPI. Activity was measured against Gram negative (E coli O18:K1:H7. ATCC 700973) bacteria in the presence of 10% blood as described above. Controls were RPMI with 10% blood and 100 nM Tifacogin. The biological activity was determined from the reduction of bacterial colonies, as above.
The three peptides #1, #2, & #3 were diluted in H2O to 10 fold their final assay concentration and incubated with bacteria for 4 hours, at the final concentrations of 3 μM, 300 nM 100 nM and 10 nM. E. coli was used at 3000 CFU/200 μl. Surviving colony numbers were determined as described in Example 1. […] Full-length TFPI has no activity against Gram negative bacteria in these assays at the concentrations tested.
Time-dependency: Peptides were incubated with 3000 CFU E. coli O18:K1:H7 at the indicated final concentrations in the presence of 10% blood in three parallel 200 μl reactions as described above. RPMI with 10% blood was used as negative control. After incubation for 1, 3, or 5 hours samples were assayed for the effect on bacterial survival by plating serial dilutions onto agar plates. […] The effect of peptides on bacterial survival increases over the time-span studied.
In these experiments, variable concentrations of E. coli O18:K1:H7 (3×10^3, 3×10^4 or 3×10^5 CFU/200 μl) were challenged with either 3 μM or 100 nM peptide #3 in RPMI/10% blood, and incubated for 3 or 5 hours before dilution and plating. Briefly, the bacteria were diluted to the indicated CFU in 40 μl PBS, the reactions assembled at a final volume of 200 μl as above, and incubated at 37° C. Serial dilutions of the reactions were plated and the colony number determined after overnight incubation. […] At 5 hours no effect on the high CFU culture was discernable, indicating a titration of the killing activity and the high CFU culture exceeding the capacity.

[2] = system: E. coli O18:K1:H7; experiment: Bacterial killing assay in serum or plasma (complement dependence); settings: FIG. 8D; peptides serially diluted to 300 nM, and 30 nM in serum
[3] = system: E. coli O18:K1:H7; experiment: Bacterial killing assay without blood (growth medium); settings: no blood; for CFU (Range): Table 4, growth medium 6.2
Description: Peptides #1, #3 and #4 were tested for their activity without blood on E. coli O18:K1:H7. The peptides were assayed at 3 μM. The same blood and TFPI controls were included as in Experiment I.

[4] = system: IL-6 secretion; experiment: IL-6 induction assay in diluted whole blood in the presence of LPS; settings: FIG. 11c; peptide and LPS dose-dependent
Description: The ability of TFPI to induce IL-6 secretion in the presence of LPS was tested using TFPI and TFPI analogs, including: (i) TFPI1-161, having just residues 1-161 of TFPI; (ii) TFPI with mutant K1; (iii) TFPI with mutant K2; (iv) TFPI with mutants K1 and K2.
When diluted, freshly drawn whole blood is incubated with LPS derived from the cell wall of Gram-negative bacteria, a cytokine cascade is induced within a few hours.
A peptide consisting of the 22 C-terminal amino acids of TFPI (i.e. SEQ ID NO:3) was tested in an IL-6 assay in the presence of LPS. […] Thus this peptide appears to be able to neutralize the endotoxin activity of LPS.

[5] = Table 1, peptide 300 nM, 3000 CFU/200 μl, 4 hours, blood control 5.1
[6] = Table 1, peptide 3 μM, 3000 CFU/200 μl, 4 hours, blood control 5.1
[7] = Table 4, in blood, peptide 3 μM, blood control 5.1

TKRKRKKQRVKIAYEEIFVKNM (homo sapiens) [Peptide #1, TFPI aas 255-276, the 22 C-terminal amino acids of TFPI]
activity against O18ac:K1:H7 E. coli strain in blood ([1]; 4 hours): active | bacterial survival (outgrowth of bacterial colonies) ([1]; 300 nM of peptide): killed all bacteria | bacterial survival (outgrowth of bacterial colonies) [1]: dose-dependently reduced bacterial survival | CFU [1, 5]: 5.2 | CFU [1, 6]: 1.1 | CFU (Range) [1, 7]: 1.1 (0.4-1.2) | CFU 1 hour ([1]; 300 nM): 3.4 | CFU 3 hours ([1]; 300 nM): 4.2 | CFU 5 hours ([1]; 300 nM): 4.2 | CFU 1 hour ([1]; 3 μM): 3.4 | CFU 3 hours ([1]; 3 μM): 1.2 | CFU 5 hours ([1]; 3 μM): 0.2 | CFU (Range) ([1]; Table 9, peptide 3 μm, Heparin, 3 U/mL): 5.5 | CFU (Range) ([1]; Table 9, peptide 3 μm, LMW heparin, 0.3 U/mL): 4.7 (4.5-5.1) | CFU (Range) ([1]; Table 9, peptide 3 μm, LMW heparin, 3 U/mL): 5.3 | CFU (Range) ([1]; Table 9, peptide 3 μm, no heparin, blood alone 4.9): 1.2 (N.D.-1.4) | bacterial killing activity with un-fractionated heparin ([1]; peptide 3 μm, un-fractionated heparin at 0.3 U/ml, data not shown): partial loss of bacterial killing activity | bacterial killing activity in serum (rank) [2]: greatly reduced activity | CFU (Range) ([3]; peptide 3 μM): 5.6 | effect of LPS on cytokine production (IL-6) [4]: completely reversed the effect of LPS on cytokine production

GFIQRISKGGLIKTKRKRKKQRVKIAYEEIFVKNM (homo sapiens) [Peptide #5, TFPI aas 242-276]
activity against O18ac:K1:H7 E. coli strain in blood ([1]; 4 hours): similar, but slightly reduced | CFU ([1]; Table 2, peptide 10 nM, blood control 3.5): 4.1 | CFU ([1]; Table 2, peptide 100 nM, blood control 3.5): 2.1

LLGDFFRKSKEKIGKEFKRIVQRIKDFLRNLVPRTES [Peptide #4, reference compound]
CFU [1, 5]: 4.9 | CFU [1, 6]: 1.3 | CFU (Range) [1, 7]: 1.3 (1.3-1.4) | CFU 1 hour ([1]; 300 nM): 3.3 | CFU 3 hours ([1]; 300 nM): 3.9 | CFU 5 hours ([1]; 300 nM): 3.1 | CFU 1 hour ([1]; 3 μM): 3.1 | CFU 3 hours ([1]; 3 μM): 3.4 | CFU 5 hours ([1]; 3 μM): 1.2 | inhibition of bacteria in the absence of blood ([3]; 3000 nM): full inhibition of bacteria

NFQRKEKREVIYKVKTKIKAMR (homo sapiens) [Peptide #2, scrambled control peptide, aas 255-276 scramble, reference compound]
CFU [1, 5]: 5.3 | CFU [1, 6]: 5.4 | CFU 1 hour ([1]; 3 μM): 3.4 | CFU 3 hours ([1]; 3 μM): 4.3 | CFU 5 hours ([1]; 3 μM): 5.2 | bacterial killing activity in serum (rank) [2]: inactive

Heparin [reference compound]
CFU (Range) ([1]; Table 9, blood alone control with Heparin, 3 U/mL, no peptide): 5.4 (5.3-5.4)

TFPI: all exogenous TFPI in the examples is the TFPI analog ala-TFPI (SEQ ID NO:2), tifacogin
activity against O18ac:K1:H7 E. coli strain in blood ([1]; 4 hours): no activity | bacterial killing activity (effect on bacterial growth) [1]: did not exhibit a similar activity | CFU ([1]; Table 1, TFPI control (100 nM Tifacogin), 3000 CFU/200 μl, 4 hours, blood control 5.1): 5.2 | CFU (Range) ([1]; Table 4, in blood, TFPI control): 5.2 | CFU (Range) ([3]; TFPI control): 6.2

B1: Cathepsin G: protease used to digest TFPI, tested alone as negative control at 400 nM (protein, UniProt P08311 21-244, looked up)
Cathepsin G: IIGGRESRPHSRPYMAYLQIQSPAGQSRCGGFLVREDFVLTAAHCWGSNINVTLGAHNIQRRENTQQHITARRAIRHPQYNQRTIQNDIMLLQLSRRVRRNRNVNPVALPRAQEGLRPGTLCTVAGWGRVSMRRGTDTLREVQLRVQRDRQCLRIFGSYDPRRQICVGDRRERKAAFKGDSGGPLLCNNVAHGIVSYGKSSGVPPEVFTRVSSFLPWIRTTMRS
bacterial killing activity (effect on bacterial growth) [1]: did not exhibit a similar activity
